Laboratory results as given in ChEMBL document CHEMBL4052709, “Novel analogs of N-acylhydroxyethylaminomethyl-4H-chromen-4-one scaffold as IL-5 inhibitors” (Bioorg Med Chem, 2017).

Columns and labels:
[1] = molecular target: T1, Interleukin-5 (Mus musculus) (UniProt P04401); assay: Inhibition of IL-5 in mouse Y16 cells assessed as reduction in cell proliferation at 30 uM after 48 hrs by WST-1 assay relative to control; assay type: cell-based
T1 sequence (whole entry): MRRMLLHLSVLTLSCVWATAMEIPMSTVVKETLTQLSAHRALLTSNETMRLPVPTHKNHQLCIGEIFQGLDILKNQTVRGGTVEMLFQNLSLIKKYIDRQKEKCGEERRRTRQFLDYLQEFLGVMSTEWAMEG

[2] = molecular target: T1, Interleukin-5 (Mus musculus); assay: Inhibition of IL-5 in mouse Y16 cells assessed as reduction in cell proliferation at 50 uM after 48 hrs by WST-1 assay relative to control; assay type: cell-based

Row | SMILES | inhibition [1] | inhibition [2]
1 | CCCNC(=O)N(CCO)Cc1coc2cccc(OCC3CCCCC3)c2c1=O | 15% | 
2 | O=C(Cc1ccccc1)N(CCO)Cc1coc2cccc(OCC3CCCCC3)c2c1=O | 95% | 
3 | CCC(=O)N(CCO)Cc1coc2cccc(OCC3CCCCC3)c2c1=O | 63% | 
4 | CCCC(=O)N(CCO)Cc1coc2cccc(OCC3CCCCC3)c2c1=O | 61% | 
5 | CCOC(=O)N(CCO)Cc1coc2cccc(OCC3CCCCC3)c2c1=O | 89% | 
6 | CC(C)NC(=O)N(CCO)Cc1coc2cccc(OCC3CCCCC3)c2c1=O | 6% | 
7 | O=C(Nc1ccc(Cl)cc1)N(CCO)Cc1coc2cccc(OCC3CCCCC3)c2c1=O | 4% | 
8 | COc1ccc(CC(=O)N(CCO)Cc2coc3cccc(OCC4CCCCC4)c3c2=O)cc1 | 92% | 
9 | O=C(NC1CCCCC1)N(CCO)Cc1coc2cccc(OCC3CCCCC3)c2c1=O | 85% | 
10 | O=C(Oc1ccccc1)N(CCO)Cc1coc2cccc(OCC3CCCCC3)c2c1=O | 84% | 
11 | O=C(NCc1ccccc1)N(CCO)Cc1coc2cccc(OCC3CCCCC3)c2c1=O | 95% | 
12 | O=C(NCCCc1ccccc1)N(CCO)Cc1coc2cccc(OCC3CCCCC3)c2c1=O | 95% | 
13 | O=c1c(-c2ccc(O[C@H]3O[C@@H](CO)[C@H](O)[C@@H](O)[C@@H]3O)cc2)coc2cc(O)cc(O)c12 |  | 79.1%
14 | COc1ccc(NC(=O)N(CCO)Cc2coc3cccc(OCC4CCCCC4)c3c2=O)cc1 | 80% | 
15 | CCNC(=O)N(CCO)Cc1coc2cccc(OCC3CCCCC3)c2c1=O | 7% | 

More lines, now with the values ahead:

Row | inhibition [1] | inhibition [2] | SMILES
16 | 35% |  | CC(C)CCOc1cccc2occ(CN(CCO)C(=O)Nc3ccccc3)c(=O)c12
17 | 61% |  | O=C(Nc1ccccc1)N(CCO)Cc1coc2cccc(OCC3CCCCC3)c2c1=O
18 | 42% |  | CC(C)CCOc1cccc2occ(CN(CCO)C(=O)Oc3ccccc3)c(=O)c12
19 | 36% |  | CC(C)(C)CCOc1cccc2occ(CN(CCO)C(=O)Oc3ccccc3)c(=O)c12
20 | 47% |  | CC(C)(C)CCOc1cccc2occ(CN(CCO)C(=O)Nc3ccccc3)c(=O)c12
21 | 37% |  | CC(C)CCOc1cccc2occ(CN(CCO)C(=O)Cc3ccccc3)c(=O)c12
22 | 46% |  | CC(C)(C)CCOc1cccc2occ(CN(CCO)C(=O)Cc3ccccc3)c(=O)c12
